Source: patent publication US20130012591A1, “PROPHYLAXIS OF SKIN CANCER WITH RETINAMIDES” (Revision Therapeutics, Inc., priority 2009, published 2013)
“Also recorded” adds a separate entry of the source.

What was measured:
patients with dry AMD = assay: Incidence of all neoplasms and basal cell carcinoma in patients with dry AMD (Example 6); type: in vivo, human; settings: for Basal Cell Carcinoma, number of patients: placebo 5 of 82; for Basal Cell Carcinoma, incidence: placebo 6.1%; for All neoplasms, number of patients: placebo 14 of 82; for All neoplasms, incidence: placebo 17.1%
Protocol: Patients with dry AMD were selected. Patients are divided into three groups. Group I (n=82) received a placebo. Group II (n=80) received fenretinide at a dose of 100 mg/day. Group III (n=84) received fenretinide at a dose of 300 mg/day. Incidence of all neoplasms and basal cell carcinoma was determined for each group.

[1] = test system: human that suffers from geographic atrophy (GA), secondary to age related macular degeneration (AMD); assay: Rate of skin neoplasms/cancer in patients with geographic atrophy secondary to AMD (Example 1); type: in vivo; settings: orally 100 mg/day, placebo 9.8%
Protocol: Two patient cohorts were selected. Each member of each patient cohort was a human that suffers from geographic atrophy (GA), secondary to age related macular degeneration (AMD). The mean concentration of serum retinol binding protein in the patients at baseline was approximately 60 μg/mL. The average concentration of serum retinol binding protein in normal individuals of the same type is about 25 μg/mL to about 40 μg/mL. In the first patient population, individuals were orally administered 100 mg/day fenretinide. In the second patient population, individuals were orally administered a placebo. The placebo group developed skin neoplasms (including basal cell carcinoma, squamous cell carcinoma, and/or melanoma) at a rate of 9.8%. In the first patient population, individuals developed cancer (including basal cell carcinoma, squamous cell carcinoma, and/or melanoma) at a rate of 2.5%. […] FIG. 4 illustrates the cytotoxicity of fenretinide on the melanoma cell line (B16 (RL)). FIG. 5 illustrates the effect of fenretinide and compounds of Formula II (designated SIR-1001 and SIR-1005) on two human melanoma cell lines (M207 and SK-MEL28).

Sigma 1 receptor = target: T1, Sigma 1 receptor (Cavia porcellus, UniProt Q60492); assay: Sigma 1 receptor binding assay with [3H](+)-pentazocine; settings: competing ligand 10 μM; [3H](+)-pentazocine 1.0 nM or 0-10 nM; guinea pig brain membrane
T1 construct: guinea pig brain membrane aliquots were thawed, and then suspended at a concentration of 1 mg protein/ml; from tissue; host or cells: guinea pig brain membranes
Protocol: Sigma 1 receptor binding assays were performed according to DeHaven-Hudkins et al. (1992). In brief, guinea pig brain membrane aliquots were thawed, and then suspended at a concentration of 1 mg protein/ml by adding fresh sigma 1 assay buffer (50 mM Tris-HCl; pH 7.4, 25° C.). Each glass assay tube was kept at a final volume of 1.0 ml, contained 0.25 mg protein, and was incubated for 150 min at 37° C. with [3H](+)-pentazocine. [3H](+)-Pentazocine was used at either a single concentration (1.0 nM, FIG. 6) or at a range of concentrations (0-10 nM, FIG. 7). Nonspecific binding was defined by haloperidol (1.0 μM). Competing ligand concentration (e.g., fenretinide) was 10 μM. Assays were terminated by addition of ice-cold […] (5 ml) and filtration, using a cell harvester (Brandel, Gaithersburg, Md.), through glass fiber filters (GF/B) that had been pretreated with polyethyleneimine (0.5%) for 60 min. Tubes and filter discs were washed (3×3.5 ml) with ice-cold assay buffer, and the filter discs dried under vacuum. Scintillation counting was carried out after incubation of the discs with cocktail for at least 18 h.

[2] = test system: complement genes (Crry, CFH, MCP-1, CD59a, Daf2, and CD59b); assay: Expression of complement genes in ocular tissue by RT-PCR; type: in vivo, BALB/c mice; settings: RT-PCR normalized to 18S RNA
Protocol: The effects of fenretinide on expression of complement genes was studies in […].
Fenretinide supplemented chow ([…]), or control chow, was fed to pregnant mice. Birthed litters were maintained for 4 weeks. Mice were euthanized after 4 weeks and ocular tissue was prepared for RNA extraction. Expression of complement genes was determined by RT-PCR. Data was normalized to expression of 18S RNA.
Litters of mice were separated into 2 groups just prior to weaning (4 weeks of age). Mice in Group I were fed fenretinide supplemented chow (1 g fenretinide/kg chow) for 7 weeks. Mice in Group II were fed control chow for 7 weeks. Mice were euthanized after 7 weeks and ocular tissue was prepared for RNA extraction. Expression of complement genes was determined by RT-PCR. Data was normalized to expression of 18S RNA.

T1 sequence (Q60492 whole entry): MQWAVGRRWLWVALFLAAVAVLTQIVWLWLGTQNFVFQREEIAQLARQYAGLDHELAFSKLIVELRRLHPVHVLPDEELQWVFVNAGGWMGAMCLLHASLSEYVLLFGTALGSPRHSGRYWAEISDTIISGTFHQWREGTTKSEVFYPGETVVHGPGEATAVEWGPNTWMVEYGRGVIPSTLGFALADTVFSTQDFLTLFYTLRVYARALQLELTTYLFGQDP

In the case of `CC1=C(/C=C/C(C)=C/C=C/C(C)=C/C(=O)Nc2ccc(O)cc2)C(C)(C)CCC1` [fenretinide, N-(4-hydroxyphenyl)retinamide], the “Basal Cell Carcinoma, number of patients” value (patients with dry AMD; 100 mg/day fenretinide, n = 80) is reported as 2, the “Basal Cell Carcinoma, incidence” value (patients with dry AMD; 100 mg/day fenretinide, n = 80) is reported as 2.5% and the “All neoplasms, number of patients” value (patients with dry AMD; 100 mg/day fenretinide, n = 80) is reported as 4. The “All neoplasms, incidence” value (patients with dry AMD; 100 mg/day fenretinide, n = 80) was 5.0%, the “Basal Cell Carcinoma, number of patients” value (patients with dry AMD; 300 mg/day fenretinide, n = 84) was 3 and the “Basal Cell Carcinoma, incidence” value (patients with dry AMD; 300 mg/day fenretinide, n = 84) was 3.6%. The “All neoplasms, number of patients” value (patients with dry AMD; 300 mg/day fenretinide, n = 84) was 10, the “All neoplasms, incidence” value (patients with dry AMD; 300 mg/day fenretinide, n = 84) was 11.9% and the “rate at which individuals developed cancer (including basal cell carcinoma, squamous cell carcinoma, and/or melanoma)” value [1] was 2.5%. For the same compound, the “binding of [3H]Pentazocine to Sigma-1 receptor in the presence of competing ligand” value (Sigma 1 receptor) was “reduced binding”, the “expression of complement genes Crry, CFH, MCP-1, CD59a, CD59b, Daf2 in the eye” value ([2]; high dose: supplemented chow (Ig fenretinide/kg chow) fed to pregnant mice, litters maintained 4 weeks, FIG. 9) was “down-regulation; also recorded: down-regulates” and the “expression of complement genes Crry, CFH, MCP-1, CD59a, CD59b, Daf2 in the eye” value ([2]; low dose: chow 1 g fenretinide/kg for 7 weeks from weaning, FIG. 8) was “up-regulation; also recorded: up-regulates”.
